This is an account of results in patent US12390472B2 (SUZHOU SINOVENT PHARMACEUTICALS CO., LTD., priority 2018, dated 2025).

One experiment has as its target EZH2 enzyme complex (Homo sapiens (Human), UniProt Q15910). Description: Test on EZH2 inhibitory activity (TR-FRET). To be noted: EZH2 enzyme complex 25 ng/uL, histone H3 peptide 4 uM, SAM 2 uM, 300 min; read-out: IC50 of EZH2 inhibition. The format is biochemical. On the technique in general: In TR-FRET formats the signal depends on donor and acceptor labels being close together.

Another experiment deals with WSU-DLCL2. Description: Methylated lysine of histone-H3 (H3K27Me3) detection by ELISA, WSU-DLCL2 cells. Format: cell-based. The settings on record: Homo sapiens, WSUDLCL2, 168 h; WSU-DLCL2, 7 days treatment, H3K27Me3 normalized to total histone-3; read-out: IC50 of cell methylation, WSU-DLCL2. As to the method: (§1) The operations for adherent cells and suspension cells cultured in 96-well plates were slightly different after they had been treated with compound (4-fold dilution 20 uM-0.009 nM, 3 duplicate wells) for 7 days, and the operations are summarized as follows: For adherent cells, after discarding the medium, 75 uL of 1-fold hypotonic lysis buffer (10 mM Tris-HCl, pH 7.5, containing halt protease inhibitor and PMSF with a final concentration of 1 mM) was added; the plate was frozen at −80° C. for at least 1 h or overnight; once the plate was taken away from the −80° C. environment, 120 uL (to a final volume of about 195 uL) of 1-fold hypotonic lysis buffer (containing protease inhibitor) was added, and the plate was thawed at room temperature and shaken for 2 min for mixing; and 8 uL (to a final volume of about 203 uL) of 2.5 M NaCl was added to each well to a final NaCl concentration of 100 mM and then the plate was shaken for an additional 2 min for mixing.
(§2) For suspension cells (final volume of medium was 100 uL/well), 25 uL of 5-fold hypotonic lysis buffer (50 mM Tris-HCl, pH 7.5, containing halt protease inhibitor and PMSF with a final concentration of 1 mM) was added, and the plate was frozen at −80° C. for at least 1 h or overnight. Once the plate was taken away from the −80° C. environment, 20 uL of 0.625 M NaCl was added to each well to a final NaCl concentration of about 100 mM, and the mixture was mixed well.
(§3) 75 uL or 100 uL of sample (with duplicate wells provided) was added to two 96-well ELISA plates (ThermoFisher Scientific; Immulon 4HBX 3885) and the plates were coated with total protein lysate and incubated overnight at 4° C. 50 uL of lysate was retained for protein quantitation if necessary. The sealing of the plates must be ensured. The plates were washed twice with 300 uL of 1×PBST (PBS containing 0.05% Tween 20) per well. Each well was blocked with 300 uL of dilution (PBS+2% BSA+0.05% Tween 20), incubated for 2 h at room temperature, and washed twice with 1×PBST. Primary antibodies were diluted with a dilution solution containing 1% BSA+0.05% Tween 20. 75-100 uL of anti-H3K27Me3 antibody (CST; 9733; 50% glycerol stock, 1:1,000) or anti-total histone-3 antibody (Abcam; ab1791; 50% glycerol stock, 1:10,000) was added to each well. The plates were incubated for 90 min at room temperature or incubated overnight at 4° C. The plates were washed three times with 1×PBST. 75-100 uL of anti-Rb-IgG-HRP secondary antibody (Cell Signaling Technology; 7074) was added per well, 1:2000 diluted secondary antibody for anti-H3K 27Me3 plate and 1:6000 diluted secondary antibody for anti-histone total histone-3 plate. The plates were incubated at room temperature for 90 min. The plate assayed with anti-histone-3 antibody was used to normalize the data for the corresponding plate assayed with anti-H3K 27me3. The plates must be washed at least three times with 1×PBST after primary or secondary antibody incubation. The plates were assayed by adding 75-100 uL of 3,3′,5,5′-tetramethylbenzidine substrate (CST or ThermoFisher Scientific; TMBS) per well and incubated away from light for 30 min at 37° C. The reaction was terminated by adding 100 uL of 0.5 M H2SO4 per well. The absorbance was read at 450 nm. Curve fitting was performed using Graph Pad program.
(In an ELISA, binding on a coated surface is turned into a signal by an enzyme label.)

Another experiment has as its system Pfeiffer. Description: Methylated lysine of histone-H3 (H3K27Me3) detection by ELISA, Pfeiffer cells. Format: cell-based, human. To be noted: 7 days treatment, H3K27Me3 normalized to total histone-3, read-out: IC50 of cell methylation, Pfeiffer. As to the method:
as §1, §2, §3

Molecules are shown by their SMILES. Where two headings read alike, the source gives them in different places.

Chain of EZH2 enzyme complex (Q15910 whole entry): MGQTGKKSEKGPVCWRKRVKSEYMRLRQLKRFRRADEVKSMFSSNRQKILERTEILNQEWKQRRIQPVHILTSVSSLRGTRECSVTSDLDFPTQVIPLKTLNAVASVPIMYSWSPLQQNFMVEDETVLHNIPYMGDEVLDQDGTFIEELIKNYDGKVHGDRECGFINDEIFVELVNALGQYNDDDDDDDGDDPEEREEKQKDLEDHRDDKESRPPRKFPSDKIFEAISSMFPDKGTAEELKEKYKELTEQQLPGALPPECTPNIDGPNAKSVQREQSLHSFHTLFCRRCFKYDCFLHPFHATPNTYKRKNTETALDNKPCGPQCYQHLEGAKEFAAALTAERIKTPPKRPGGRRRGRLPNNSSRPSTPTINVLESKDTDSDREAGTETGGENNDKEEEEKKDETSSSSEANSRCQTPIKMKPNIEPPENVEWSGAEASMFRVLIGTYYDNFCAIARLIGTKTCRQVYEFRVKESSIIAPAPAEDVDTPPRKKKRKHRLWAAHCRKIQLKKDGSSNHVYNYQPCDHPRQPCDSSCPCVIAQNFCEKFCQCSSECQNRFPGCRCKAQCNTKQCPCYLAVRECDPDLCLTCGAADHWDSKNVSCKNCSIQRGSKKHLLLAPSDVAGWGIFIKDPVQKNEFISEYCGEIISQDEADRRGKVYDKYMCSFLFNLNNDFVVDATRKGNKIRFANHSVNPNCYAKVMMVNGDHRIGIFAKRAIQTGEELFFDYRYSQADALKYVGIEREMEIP
Chain of EZH2 enzyme complex (O75530 whole entry partner): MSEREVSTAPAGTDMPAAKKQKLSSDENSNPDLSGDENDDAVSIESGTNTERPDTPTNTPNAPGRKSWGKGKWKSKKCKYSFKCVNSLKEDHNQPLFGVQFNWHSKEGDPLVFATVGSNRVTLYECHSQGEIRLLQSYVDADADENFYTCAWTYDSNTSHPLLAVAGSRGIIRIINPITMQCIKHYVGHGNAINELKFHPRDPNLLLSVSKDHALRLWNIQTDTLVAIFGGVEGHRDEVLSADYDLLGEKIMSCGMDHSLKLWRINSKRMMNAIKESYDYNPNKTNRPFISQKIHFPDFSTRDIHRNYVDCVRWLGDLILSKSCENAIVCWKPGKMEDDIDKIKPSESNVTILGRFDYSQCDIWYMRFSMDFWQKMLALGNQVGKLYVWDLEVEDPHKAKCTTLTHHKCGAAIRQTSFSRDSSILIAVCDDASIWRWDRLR
Chain of EZH2 enzyme complex (Q15022 whole entry partner): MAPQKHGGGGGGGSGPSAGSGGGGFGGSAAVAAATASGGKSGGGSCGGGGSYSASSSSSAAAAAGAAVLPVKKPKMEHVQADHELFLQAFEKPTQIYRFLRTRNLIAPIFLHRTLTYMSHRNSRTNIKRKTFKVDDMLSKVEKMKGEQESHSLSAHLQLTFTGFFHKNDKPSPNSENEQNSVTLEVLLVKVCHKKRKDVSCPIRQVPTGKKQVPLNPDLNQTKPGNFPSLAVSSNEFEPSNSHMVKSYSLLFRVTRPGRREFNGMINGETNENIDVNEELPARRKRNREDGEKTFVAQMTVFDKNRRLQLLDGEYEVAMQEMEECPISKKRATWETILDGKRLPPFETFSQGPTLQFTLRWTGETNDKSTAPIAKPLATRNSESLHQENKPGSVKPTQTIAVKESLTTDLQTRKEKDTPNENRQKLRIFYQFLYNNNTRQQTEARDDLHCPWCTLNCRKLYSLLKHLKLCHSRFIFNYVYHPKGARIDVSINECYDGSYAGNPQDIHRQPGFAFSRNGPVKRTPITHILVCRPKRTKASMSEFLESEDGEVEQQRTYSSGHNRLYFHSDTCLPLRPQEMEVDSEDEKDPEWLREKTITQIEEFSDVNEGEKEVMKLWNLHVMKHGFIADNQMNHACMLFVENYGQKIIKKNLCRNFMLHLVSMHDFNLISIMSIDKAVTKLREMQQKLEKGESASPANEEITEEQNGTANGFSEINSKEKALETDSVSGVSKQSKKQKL

On to `CCN(c1cc(O[C@H]2C[C@H](N3CCN(S(C)(=O)=O)CC3)C2)cc(C(=O)NCc2c(C)cc(C)[nH]c2=O)c1C)C1CCOCC1` [Example 28, N-((4,6-dimethyl-2-oxo-1,2-dihydropyridin-3-yl)methyl)-3-(ethyl(tetrahydro-2H-pyran-4-yl)amino)-2-methyl-5-(trans-3-(4-(methylsulfonyl)piperazin-1-yl)cyclobutoxy)benzamide], for which the IC50 at EZH2 enzyme complex was 10 to 100 nM; in the experiment on WSU-DLCL2 it was below 50 nM; with Pfeiffer (Homo sapiens, 168 h), below 50 nM.

As to `CCN(c1cc(O[C@H]2C[C@H](CN3CCOCC3)C2)cc(C(=O)NCc2c(C)cc(C)[nH]c2=O)c1Cl)C1CCOCC1` [Example 29, 2-chloro-N-((4,6-dimethyl-2-oxo-1,2-dihydropyridin-3-yl)methyl)-3-(ethyl(tetrahydro-2H-pyran-4-yl)amino)-5-(trans-3-(morpholinylmethyl)cyclobutoxy)benzamide], the IC50 was 10 to 100 nM at EZH2 enzyme complex; 50 to 500 nM with WSU-DLCL2; below 50 nM in the experiment on Pfeiffer (Homo sapiens, 168 h).

With `CCN(c1cc(O[C@H]2C[C@H](CN3C[C@@H](C)O[C@@H](C)C3)C2)cc(C(=O)NCc2c(C)cc(C)[nH]c2=O)c1Cl)C1CCOCC1` [Example 30, 2-chloro-N-((4,6-dimethyl-2-oxo-1,2-dihydropyridin-3-yl)methyl)-5-(trans-3-((cis-2,6-dimethylmorpholinyl)methyl)cyclobutoxy)-3-(ethyl(tetrahydro-2H-pyran-4-yl)amino)benzamide], the 50% inhibitory concentration (IC50) is 10 to 100 nM at EZH2 enzyme complex, 50 to 500 nM in the experiment with WSU-DLCL2 and below 50 nM in the experiment with Pfeiffer.

Turning to `CCN(c1cc(O[C@H]2C[C@H](CN3C[C@@H](C)O[C@@H](C)C3)C2)cc(C(=O)NCc2c(C)cc(C)[nH]c2=O)c1C)C1CCOCC1` [Example 31, N-((4,6-dimethyl-2-oxo-1,2-dihydropyridin-3-yl)methyl)-5-(trans-3-((cis-2,6-dimethylmorpholinyl)methyl)cyclobutoxy)-3-(ethyl(tetrahydro-2H-pyran-4-yl)amino)-2-methylbenzamide], the IC50 on EZH2 enzyme complex was 10 to 100 nM; with WSU-DLCL2, below 50 nM; in the experiment on Pfeiffer (Homo sapiens, 168 h), below 50 nM.

In the case of `CCN(c1cc(OC2CC(N3CCOCC3)C2)cc(C(=O)NCc2c(C)cc(C)[nH]c2=O)c1C)[C@H]1CC[C@H](N(C)CCOC)CC1` (stereo partly drawn) [Example 34, N-((4,6-dimethyl-2-oxo-1,2-dihydropyridin-3-yl)methyl)-3-(ethyl(trans-4-((2-methoxyethyl)(methyl)amino)cyclohexyl)amino)-2-methyl-5-(3-morpholinylcyclobutoxy)benzamide], the IC50 at EZH2 enzyme complex is 10 to 100 nM; in the experiment with WSU-DLCL2, 500 to 1000 nM; in the experiment on Pfeiffer (Homo sapiens, 168 h), below 50 nM.

`CCN(c1cc(O[C@H]2C[C@H](N3C[C@@H](C)O[C@@H](C)C3)C2)cc(C(=O)NCc2c(C)cc(C)[nH]c2=O)c1C)[C@H]1C[C@@H](C)O[C@@H](C)C1` [Example 35, N-((4,6-dimethyl-2-oxo-1,2-dihydropyridin-3-yl)methyl)-5-(trans-3-(cis-2,6-dimethylmorpholinyl)cyclobutoxy)-3-((cis-2,6-dimethyltetrahydro-2H-pyran-4-yl)(ethyl)amino)-2-methylbenzamide]: the 50% inhibitory concentration (IC50) at EZH2 enzyme complex is 10 to 100 nM; with WSU-DLCL2, above 1000 nM; with Pfeiffer (Homo sapiens, 168 h), 50 to 500 nM.

As to `CCN(c1cc(O[C@H]2C[C@H](CN3CCCCC3)C2)cc(C(=O)NCc2c(C)cc(C)[nH]c2=O)c1C)C1CCOCC1` [Example 36, N-((4,6-dimethyl-2-oxo-1,2-dihydropyridin-3-yl)methyl)-3-(ethyl(tetrahydro-2H-pyran-4-yl)amino)-2-methyl-5-(trans-3-(piperidin-1-ylmethyl)cyclobutoxy)benzamide], the IC50 was 10 to 100 nM at EZH2 enzyme complex; 50 to 500 nM with WSU-DLCL2; below 50 nM in the experiment with Pfeiffer (Homo sapiens, 168 h).

By IC50 is commonly meant the concentration that gives 50% inhibition.
